Read-outs that look alike come from different tables or passages of the source. Non-standard residues stand in square brackets, D forms with d. Residues, ends and D or L forms follow the SMILES beside them. 2Nal = N[C@@H](Cc1ccc2ccccc2c1)C(=O)O
Assays:
[1] = molecular target: T1, GB1a/2 receptors in presence of AJAP-1 in trans (Homo sapiens, UniProt Q9UBS5); test: SRE-Luciferase accumulation assay; assay type: cell-based; details: 10 μM peptide; for basal activity of GB1a/2Rs: in presence of AJAP-1 in trans
T1 construct: Flag; expressed in transfected cells; host or cells: HEK293T cells stably expressing chimeric Gαq/i
T1 sequence (Q9UBS5 15-961 limits assumed): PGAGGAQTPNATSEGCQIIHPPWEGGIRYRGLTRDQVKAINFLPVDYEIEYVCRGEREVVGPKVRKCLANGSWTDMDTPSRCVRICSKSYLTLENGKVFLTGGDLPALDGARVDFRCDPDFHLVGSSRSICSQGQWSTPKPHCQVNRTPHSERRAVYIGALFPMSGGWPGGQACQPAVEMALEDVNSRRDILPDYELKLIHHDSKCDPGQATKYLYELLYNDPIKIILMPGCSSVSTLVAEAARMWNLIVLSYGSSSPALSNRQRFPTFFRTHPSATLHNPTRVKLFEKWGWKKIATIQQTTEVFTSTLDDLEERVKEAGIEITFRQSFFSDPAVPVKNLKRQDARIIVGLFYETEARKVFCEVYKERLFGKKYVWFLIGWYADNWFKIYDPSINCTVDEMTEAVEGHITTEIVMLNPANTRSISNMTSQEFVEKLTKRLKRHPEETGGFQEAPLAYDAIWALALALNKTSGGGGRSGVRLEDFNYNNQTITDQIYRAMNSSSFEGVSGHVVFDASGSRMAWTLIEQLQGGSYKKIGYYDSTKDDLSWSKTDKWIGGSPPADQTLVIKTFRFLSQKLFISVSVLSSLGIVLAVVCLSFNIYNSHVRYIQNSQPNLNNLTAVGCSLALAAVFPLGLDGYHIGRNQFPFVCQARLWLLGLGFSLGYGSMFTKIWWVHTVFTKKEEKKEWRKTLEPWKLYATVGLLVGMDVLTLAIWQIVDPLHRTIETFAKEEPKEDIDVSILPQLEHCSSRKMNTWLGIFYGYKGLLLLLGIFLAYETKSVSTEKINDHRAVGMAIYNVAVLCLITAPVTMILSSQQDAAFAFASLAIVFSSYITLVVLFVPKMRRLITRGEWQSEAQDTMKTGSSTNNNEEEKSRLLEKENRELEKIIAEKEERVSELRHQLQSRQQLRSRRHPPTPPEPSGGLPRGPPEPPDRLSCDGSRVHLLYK
T1 sequence (O75899 42-941 partner): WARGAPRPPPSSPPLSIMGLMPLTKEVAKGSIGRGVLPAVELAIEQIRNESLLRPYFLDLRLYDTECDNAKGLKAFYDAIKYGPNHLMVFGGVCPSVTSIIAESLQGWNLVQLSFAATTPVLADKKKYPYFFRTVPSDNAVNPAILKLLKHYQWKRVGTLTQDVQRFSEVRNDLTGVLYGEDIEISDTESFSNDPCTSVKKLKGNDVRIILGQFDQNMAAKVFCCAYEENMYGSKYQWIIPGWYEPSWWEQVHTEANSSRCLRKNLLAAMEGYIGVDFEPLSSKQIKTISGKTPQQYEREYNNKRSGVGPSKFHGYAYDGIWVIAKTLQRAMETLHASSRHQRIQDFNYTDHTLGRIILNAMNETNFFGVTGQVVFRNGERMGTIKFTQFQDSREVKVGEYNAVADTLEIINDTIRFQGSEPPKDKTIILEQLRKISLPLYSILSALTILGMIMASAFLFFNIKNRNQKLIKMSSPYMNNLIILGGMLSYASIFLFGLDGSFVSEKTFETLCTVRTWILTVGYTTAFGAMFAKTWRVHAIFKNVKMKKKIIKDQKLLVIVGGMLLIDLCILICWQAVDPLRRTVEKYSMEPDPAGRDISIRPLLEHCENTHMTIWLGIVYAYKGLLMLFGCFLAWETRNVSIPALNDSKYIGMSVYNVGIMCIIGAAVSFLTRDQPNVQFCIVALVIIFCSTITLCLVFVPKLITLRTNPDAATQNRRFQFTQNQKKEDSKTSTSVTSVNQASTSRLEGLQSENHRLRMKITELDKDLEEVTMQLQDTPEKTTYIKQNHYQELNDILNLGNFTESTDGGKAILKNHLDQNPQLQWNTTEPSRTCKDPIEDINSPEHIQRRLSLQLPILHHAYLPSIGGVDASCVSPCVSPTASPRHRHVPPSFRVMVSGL
From the text: (§1) To elucidate whether our developed peptides AJAP-1WT, 16 and 20 could interact and disrupt the trans-interaction between AJAP-1 and GB1a/2Rs, we used an established accumulation assay based on coupling GB1a/2Rs to phospholipase C (PLC) via chimeric Gαqi (Conklin et al. 1993). PLC activity is then monitored with a serum responsive element-luciferase (SRE-Luciferase) reporter amplifying the GB1a/2Rs response (Yoo et al. 2017) (FIG. 5).
(§2) HEK293T cells stably expressing Gαq/i were transiently transfected with Flag-GB1a, Flag-GB2 and SRE-FLuc with or without AJAP-1. In order to ensure GB1a/2 binding of AJAP-1 in trans, a pool of HEK293T-Gαq/i cells expressing AJAP-1 was mixed with HEK293-Gαq/i cells expressing Flag-GB1a, Flag-GB2 and SRE-FLuc. Transfected cells were distributed into 96-well microplates (Greiner Bio-One) at a density of 80,000 cells/well. After 24 h, the culture medium was replaced with Opti-MEM™-GlutaMAX™ Peptides were incubated in Opti-MEM™-GlutaMAX™ for 10 minutes. In presence of peptide, GB1a/2 receptors were activated with various concentrations of GABA for 6 h. FLuc activity in lysed cells was measured using the Luciferase® Assay Kit (Promega) and a Spark® microplate reader. Luminescence signals were adjusted by subtracting the luminescence obtained when expressing SRE-FLuc fusion proteins alone.

GB1a/2 receptors = molecular target: T2, GB1a/2 receptors (Homo sapiens, UniProt Q9UBS5); test: SRE-Luciferase accumulation assay; assay type: cell-based; details: in the absence of AJAP-1
T2 construct: Flag; expressed in transfected cells; host or cells: HEK293T cells stably expressing chimeric Gαq/i
T2 sequence (Q9UBS5 15-961 limits assumed): as the sequence (Q9UBS5 15-961 limits assumed) above
T2 sequence (O75899 42-941 partner): as the sequence (O75899 42-941 partner) above
From the text: as §1, §2

[2] = human, plasma
Procedure: For time-course assay, 360 μL human plasma was pre-warmed up at 37° C. for 15 min and then spiked with 40 μL of tested peptides (1 mM in 1×PBS). […] Subsequently, 100 μL acetonitrile was added into and then samples were incubated overnight at −20° C. After that, all samples were centrifuged at 13,400 rpm for 10 min and the supernatant was filtered and then analyzed by LC-MS and UPLC (Waters). The area under the curve (AUC) was determined and normalized to the value of the first time point. The half-life (T1/2) was obtained by fitting the data to the one-phase decay equation in GraphPad Prism 9 and expressed as the mean of three individual experiments. For end-point assay, 108 μL human plasma was pre-warmed up at 37° C. for 15 min and then spiked with 12 μL of tested peptides (1 mM in 1×PBS).

GB1a subunit = molecular target: T3, GB1a subunit (Mus musculus, UniProt Q9WV18); test: Pull-down from mouse brain membrane fraction, immunoblotting; assay type: binding; details: immobilized peptides, whole-brain lysate
T3 construct: using the homogenized membrane fraction of wild type mouse brains; from tissue; host or cells: adult mouse brain, solubilized membrane-enriched fraction
T3 sequence (Q9WV18 20-960): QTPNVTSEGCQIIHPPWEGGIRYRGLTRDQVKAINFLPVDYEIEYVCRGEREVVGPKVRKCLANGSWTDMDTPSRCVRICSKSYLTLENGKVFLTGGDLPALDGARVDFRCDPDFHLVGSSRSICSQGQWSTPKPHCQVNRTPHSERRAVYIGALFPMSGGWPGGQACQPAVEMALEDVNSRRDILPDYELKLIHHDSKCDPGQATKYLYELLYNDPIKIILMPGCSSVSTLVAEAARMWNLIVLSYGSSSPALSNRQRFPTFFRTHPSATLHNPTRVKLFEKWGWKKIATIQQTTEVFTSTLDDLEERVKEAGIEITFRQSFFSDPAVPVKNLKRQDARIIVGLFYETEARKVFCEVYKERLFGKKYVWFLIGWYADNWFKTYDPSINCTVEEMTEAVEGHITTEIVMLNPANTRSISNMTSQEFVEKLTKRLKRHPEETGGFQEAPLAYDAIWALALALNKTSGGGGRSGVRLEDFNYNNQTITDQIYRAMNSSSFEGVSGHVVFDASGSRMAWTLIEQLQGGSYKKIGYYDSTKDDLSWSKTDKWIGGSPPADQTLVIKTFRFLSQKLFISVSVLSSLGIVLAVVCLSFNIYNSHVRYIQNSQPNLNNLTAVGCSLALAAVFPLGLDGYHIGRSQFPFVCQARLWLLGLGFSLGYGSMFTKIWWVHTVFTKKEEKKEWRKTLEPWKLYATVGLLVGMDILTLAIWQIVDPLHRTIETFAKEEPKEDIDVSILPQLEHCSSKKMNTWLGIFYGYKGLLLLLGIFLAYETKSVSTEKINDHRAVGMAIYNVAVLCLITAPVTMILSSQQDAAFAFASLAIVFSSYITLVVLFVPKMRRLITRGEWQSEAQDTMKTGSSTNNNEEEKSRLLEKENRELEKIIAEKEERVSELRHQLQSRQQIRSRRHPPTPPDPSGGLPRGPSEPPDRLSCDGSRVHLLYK
Procedure: Covalent immobilization of peptides. Peptides AJAP-1WT, 17 and 20 comprising a C-terminal Cys and a PEG2 linker, were loaded covalently to Dynabeads M-270 Epoxy beads (Thermo Fischer Scientific) according to the protocol of the manufacturer. 25 μL DMSO stocks of peptides (10 mM) were diluted 15 times into 350 μL coupling buffer (100 mM PBS buffer containing 2 M […] and 10 mM TCEP, PH=7.4) and agitated overnight at 37° C. with Dynabeads M-270 Epoxy beads (5 mg, ~3.3×10^8 beads), which had been washed and equilibrated with coupling buffer before. After removing excess peptides, the Dynabeads M-270 Epoxy beads were washed three times and equilibrated with 100 mM PBS buffer, pH=7.4 and stored at 4° C.
Preparation of whole-brain lysates. Dissected adult mouse brains were placed in ice-cold homogenization buffer (320 mM sucrose, 4 mM HEPES, PH 7.5, 1 mM EDTA, 1 mM EGTA, supplemented with complete EDTA-free protease inhibitor mixture (Roche), 1 mL per 100 mg of brain) and homogenized with a glass-Teflon homogenizer (40 passes) on ice. The homogenized material was cleared by centrifugation at 500×g (4° C., 15 min). […]

[3] = molecular target: Sushi domains (SD1/2) protein; test: Fluorescence polarization (FP) competition assay with AJAP-1probe, calculated Ki; assay type: binding
Method in brief: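 Ki values were derived from IC50s (sigmoidal fits, ≥ triplicate), with probe Kd obtained by saturation titration of SD1/2. Peptides displaced a 25 nM TAMRA-labelled probe; polarization read at 530/580 nm in 1% BSA-containing PBS, pH 7.4, room temperature.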

[4] = tested on: HeLa cell line stably expressing HaloTag-GFP fusion protein; test: Chloroalkane penetration assay (CAPA); assay type: in vitro ADME; details: cell membrane permeability, CA-tagged peptides, mean ± SEM, n ≥ 3
Procedure: The HeLa cell line used for CAPA assay was generated by Chenoweth and co-workers and provided by Kritzer and co-workers. The cells stably express a HaloTag-GFP fusion protein anchored through a mitochondria targeting peptide exposed to the cytosol. For CAPA, Hela cells were seeded using DMEM supplemented with FBS in a 96-well plate one day before the experiment at a density of 4×10^4 cells/well. Just before the assay, the growth media was aspirated off and replaced with Opti-MEM assay media (100 μL/well). DMSO stocks of peptides (10 mM) were diluted in Opti-MEM to prepare serial dilutions of peptides in a separate 96-well PCR plate ensuring the final concentration of DMSO was kept consistent and below 1%. Subsequently, 25 μL of peptide solution was added into each well and the plate was incubated for 4 h at 37° C. with 5% CO2. After aspirating the assay media off, cells were washed with fresh Opti-MEM (80 μL/well) for 15 min at rt. Following removal of the washing media, cells were incubated with 5 μM CA-TAMRA in Opti-MEM (50 μL/well) for 15 min. Non CATAMRA control wells were incubated with Opti-MEM alone (50 μL/well). […] After aspiration, cells were trypsinized using clear Trypsin (20 μL/well, 10 min at 37° C.), resuspended in PBS containing 2% FBS ([…]), and analyzed using a benchtop flow cytometer (Guava EasyCyte, EMD Millipore).

[5] = CPP tagged peptides overview, SD1/2 binding affinity, mean ± SEM, n ≥ 3, read-out: Ki

## CC[C@H](C)[C@H](NC(=O)[C@H](Cc1ccccc1)NC(=O)[C@H](CCC(=O)O)NC(=O)[C@@H](NC(=O)[C@H](CCC(=O)O)NC(C)=O)[C@@H](C)O)C(=O)N[C@@H](C)C(=O)N[C@@H](Cc1c[nH]c2ccccc12)C(=O)NCC(=O)N1CCC[C@H]1C(=O)N[C@H](C(=O)NCC(=O)N[C@@H](CC(=O)O)C(=O)N[C@@H](CCC(=O)O)C(=O)N[C@@H](CC(=O)O)C(N)=O)[C@@H](C)O [AJAP-1WT, Ac-ETEFIAWGPTGDED-NH2] (Ac-ETEFIAWGPTGDED-NH2)
[1]
  basal activity of GB1a/2Rs: elevated basal activity
GB1a/2 receptors
  Emax values of GABA-activated GB1a/2Rs: did not affect the Emax values
[2]
  half-life: > 48 h
GB1a subunit
  pull-down of native GB1a: ability to bind and enrich full-length GB1a subunit
[3]; purified peptides, read-out: Ki
  Ki: 31 ± 1 nM

## CC[C@H](C)[C@H](NC(=O)[C@H](Cc1c[nH]c2ccccc12)NC(=O)[C@H](CC(=O)O)NC(=O)[C@H](CC(=O)O)NC(=O)[C@H](CC(=O)O)NC(=O)[C@H](CCC(=O)O)NC(C)=O)C(=O)N[C@@H](CC(=O)O)C(=O)N[C@@H](Cc1c[nH]c2ccccc12)C(=O)N[C@@H](Cc1ccc(O)cc1)C(=O)N[C@@H](CC(=O)O)C(=O)N[C@@H](CO)C(=O)N[C@@H](CC(=O)O)C(=O)N[C@@H](CC(=O)O)C(=O)N[C@@H](CC(=O)O)C(N)=O [Peptide 16] (Ac-EDDDWIDWYDSDDD-NH2)
[1]
  reduction of negative allosteric modulation effects of AJAP-1 at GB1a/2Rs in trans: to a greater extent than AJAP-1WT peptide
  basal activity of GB1a/2Rs: elevated basal activity
GB1a/2 receptors
  Emax values of GABA-activated GB1a/2Rs: did not affect the Emax values
[2]
  half-life: > 48 h
[3]; [5]
  Ki: 3.2 ± 0.2 nM
[3]; Table 1, affinity maturation, mean ± SEM, n ≥ 3, read-out: Ki
  Ki: 3.2 ± 0.2 nM
[3]; Table 13, peptides for affinity maturation, read-out: Ki (nM) mean ± SEM
  Ki: 3.2 ± 0.2 nM

## CC[C@H](C)[C@H](NC(=O)[C@H](CC(=O)O)NC(=O)[C@H](CC(=O)O)NC(=O)[C@H](Cc1ccc(O)cc1)NC(=O)[C@H](CC(=O)O)NC(=O)[C@H](CC(=O)O)NC(=O)[C@H](CO)NC(=O)[C@H](CC(=O)O)NC(=O)[C@H](CCC(=O)O)NC(=O)[C@H](Cc1ccc2ccccc2c1)NC(C)=O)C(=O)N[C@@H](CC(=O)O)C(=O)N[C@@H](CC(=O)O)C(=O)N[C@@H](CC(=O)O)C(=O)N[C@@H](Cc1c[nH]c2ccccc12)C(N)=O [Scr-20, reference compound] (Ac-[2Nal]EDSDDYDDIDDDW-NH2)
[1]
  basal activity of GB1a/2Rs: significant decreased basal activity
GB1a/2 receptors
  Emax values of GABA-activated GB1a/2Rs: did not affect the Emax values
GB1a subunit
  pull-down of native GB1a: did not interact with the GB1a subunit
[3]; Table 16, ncAAs incorporated peptides, read-out: Ki (nM) mean ± SEM
  Ki: 31200 ± 989 nM

## DDDWIDWYDSDDDYGRKKRRQRRR [Peptide 16-Tat]
[3]; [5]
  Ki: 71 ± 1 nM
[3]; Table 14, CPPs tagged peptides, read-out: Ki (nM) mean ± SEM
  Ki: 70.5 ± 0.3 nM
[4]
  CP50: 19 ± 0.4 µM
